Data as given in patent US20220365085A1, “B[…], THE USE OF B[…], SENSORS […] WITH THE SAID B[…] AND THE DETECTION METHOD OF SARS-COV-2 VIRUS” (SENSDX SPÓLKA AKCYJNA, priority 2019, published 2022).
Numbered stars: 1 amine (or outer) side, 2 acyl side, 3 side chain; on linkers, the order of the positions; unused ones are H or OH. Square brackets hold non-standard residues; d marks the D form. Peptide text beside a SMILES is read from it. * marks the point of attachment. ξ: configuration not given here. X1 = O=C([C@@H](N[*:1])c1cnc[nH]1)[*:2]; Ile(3ξ) = CCC(C)[C@H](N)C(=O)O; Lauroyl = CCCCCCCCCCCC(=O)*

System: SARS-CoV-2 virus

With CCCCCCCCCCCC(=O)N[C@H](C(=O)N[C@H](C(=O)N[C@@H](CO)C(=O)N[C@@H](CC(N)=O)C(=O)N[C@@H](Cc1c[nH]cn1)C(=O)N[C@@H](CO)C(=O)N[C@@H](Cc1c[nH]cn1)C(=O)N[C@@H](Cc1c[nH]cn1)C(=O)N[C@@H](Cc1c[nH]cn1)C(=O)N[C@@H](CC(=O)O)C(=O)N[C@H](C(=O)N[C@@H](CC(C)C)C(N)=O)C(C)CC)C(C)CC)c1cnc[nH]1 (stereo partly drawn) [11-KOD1, 11-Mrcpt-HISNHSHHHDIL-NH2] (Lauroyl-[X1][Ile(3ξ)]SNHSHHHD[Ile(3ξ)]L-NH2) the “result of the measurement on a negative swab (impedance changes on the sensor)” value was “no impedance changes” and the “result of the measurement on a positive swab (presence of the virus in the sample)” value ([…], MOBI SensDx reader, positive when Δ>10%) was “positive result (+)”.
